Results reported in ChEMBL document CHEMBL5321293, “Discovery of ERD-3111 as a Potent and Orally Efficacious Estrogen Receptor PROTAC Degrader with Strong Antitumor Activity” (J Med Chem, 2023).
Active and inactive are the calls of the source. The rule behind the calls is not given here.

What was measured:
[1] = Downregulation of ERalpha protein expression in tumor of CB17 SCID mouse xenografted with human MCF7 cells harboring wild type ESR1 at 30 mg/kg, po qd for 3 days and measured after 24 hrs last dose by Western blot analysis relative to control; assay type: functional; settings: time 3 day
[2] = Downregulation of ERalpha protein expression in tumor of CB17 SCID mouse xenografted with human MCF7 cells harboring wild type ESR1 at 30 mg/kg, po qd for 3 days and measured after 3 hrs last dose by Western blot analysis relative to control; assay type: functional; settings: time 3 day
[3] = Downregulation of ERalpha protein expression in tumor of CB17 SCID mouse xenografted with human MCF7 cells harboring ESR1 Y537S mutant at 30 mg/kg, po qd for 3 days and measured after 6 hrs last dose by Western blot analysis relative to control; assay type: functional; settings: time 3 day
MCF7 [4] = assay: Antitumor activity against human MCF7 cells harboring wild type ESR1 xenografted in CB17 SCID mouse assessed as tumor growth inhibition at 10 mg/kg, po qd for 5 weeks; assay type: functional; settings: MCF7, 840 h, read-out: TGI
MCF7 [5] = assay: Antitumor activity against human MCF7 cells harboring ESR1 Y537S mutant xenografted in CB17 SCID mouse assessed as tumor growth inhibition at 30 mg/kg, po qd for 4 weeks; assay type: functional
MCF7 [6] = assay: Antitumor activity against human MCF7 cells harboring ESR1 Y537S mutant xenografted in CB17 SCID mouse assessed as tumor growth inhibition at 30 mg/kg, po qd for 4 weeks and measured 30 days post last dose; assay type: functional
MCF7 [7] = assay: Antitumor activity against human MCF7 cells harboring ESR1 D538G mutant xenografted in CB17 SCID mouse assessed as tumor growth inhibition at 30 mg/kg, po qd for 4 weeks; assay type: functional; settings: MCF7, 672 h, read-out: TGI
MCF7 [8] = assay: Antitumor activity against human MCF7 cells harboring ESR1 D538G mutant xenografted in CB17 SCID mouse assessed as tumor growth inhibition at 30 mg/kg, po qd for 4 weeks and measured 1 week post last dose; assay type: functional, organism-based
[9] = Toxicity in CB17 SCID mouse xenografted with human MCF7 cells harboring wild type ESR1 assessed as body weight change at 10 mg/kg,po qd for 5 weeks; assay type: organism-based; settings: in vivo, 840 h
[10] = Toxicity in CB17 SCID mouse xenografted with human MCF7 cells harboring ESR1 Y537S mutant assessed as body weight change at 30 mg/kg,po qd for 4 weeks; assay type: organism-based; settings: in vivo, 672 h
[11] = Toxicity in CB17 SCID mouse xenografted with human MCF7 cells harboring ESR1 D538G mutant assessed as body weight change at 30 mg/kg,po qd for 4 weeks; assay type: organism-based; settings: in vivo, 672 h
[12] = Volume of distribution at steady state in Sprague-Dawley rat at 1 mg/kg, iv and measured upto 24 hrs by LC-MS/MS analysis; settings: in vivo
[13] = Clearance in Sprague-Dawley rat at 1 mg/kg, iv and measured upto 24 hrs by LC-MS/MS analysis; settings: in vivo
[14] = Half life in Sprague-Dawley rat at 3 mg/kg, po and measured upto 24 hrs by LC-MS/MS analysis; settings: in vivo
[15] = AUC in Sprague-Dawley rat at 3 mg/kg, po and measured upto 24 hrs by LC-MS/MS analysis; assay type: ADME, organism-based; parameters: dose 3 mg/kg, time < 24 hrs, route po; settings: in vivo; for AUC at 24 h: Sprague-Dawley
[16] = molecular target: T1, Protein cereblon/Estrogen receptor (Homo sapiens, UniProt P03372+Q96SW2); assay: Protac activity at human ERalpha in human MCF7 cells assessed as protein degradation incubated for 12 hrs by ICW blot assay; assay type: cell-based
Target sequence in this assay (P03372 whole entry): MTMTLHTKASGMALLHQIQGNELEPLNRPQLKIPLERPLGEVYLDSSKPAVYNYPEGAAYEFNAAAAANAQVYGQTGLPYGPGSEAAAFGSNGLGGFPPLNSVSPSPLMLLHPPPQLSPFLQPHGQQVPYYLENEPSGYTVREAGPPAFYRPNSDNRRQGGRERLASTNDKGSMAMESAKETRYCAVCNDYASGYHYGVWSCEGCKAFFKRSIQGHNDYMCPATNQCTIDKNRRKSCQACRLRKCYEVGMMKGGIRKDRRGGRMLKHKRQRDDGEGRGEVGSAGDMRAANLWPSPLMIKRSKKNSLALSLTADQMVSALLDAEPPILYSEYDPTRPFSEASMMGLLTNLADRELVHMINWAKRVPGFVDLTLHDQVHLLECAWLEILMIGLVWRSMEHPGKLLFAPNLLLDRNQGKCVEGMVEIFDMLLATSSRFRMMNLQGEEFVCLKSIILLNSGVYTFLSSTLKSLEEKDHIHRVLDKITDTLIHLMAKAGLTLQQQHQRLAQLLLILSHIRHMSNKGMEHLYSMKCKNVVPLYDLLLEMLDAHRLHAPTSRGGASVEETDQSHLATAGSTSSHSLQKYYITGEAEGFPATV
Target sequence in this assay (Q96SW2 whole entry): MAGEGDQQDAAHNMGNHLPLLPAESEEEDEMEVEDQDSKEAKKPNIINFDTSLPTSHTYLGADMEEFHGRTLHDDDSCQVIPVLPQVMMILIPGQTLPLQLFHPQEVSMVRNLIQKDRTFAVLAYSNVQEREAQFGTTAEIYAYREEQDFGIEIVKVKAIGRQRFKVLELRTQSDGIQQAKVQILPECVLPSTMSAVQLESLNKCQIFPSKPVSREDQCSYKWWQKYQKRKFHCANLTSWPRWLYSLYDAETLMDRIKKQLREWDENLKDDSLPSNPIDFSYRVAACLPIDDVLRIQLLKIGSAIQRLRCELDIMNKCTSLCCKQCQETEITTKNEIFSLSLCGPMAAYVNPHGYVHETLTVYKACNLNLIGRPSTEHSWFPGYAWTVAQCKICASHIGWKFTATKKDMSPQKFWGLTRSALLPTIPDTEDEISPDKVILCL

[17] = molecular target: T1, Protein cereblon/Estrogen receptor; assay: Protac activity at human ERalpha in human MCF7 cells assessed as induction of ERalpha degradation by measuring maximum efficacy at 1 uM incubated for 12 hrs by ICW blot assay relative to control; assay type: cell-based
Target sequence in this assay (P03372 whole entry, looked up): as the sequence (P03372 whole entry) above
Target sequence in this assay (Q96SW2 whole entry, looked up): as the sequence (Q96SW2 whole entry) above

[18] = Volume of distribution at steady state in ICR mouse at 1 mg/kg, iv and measured upto 24 hrs by LC-MS/MS analysis; assay type: ADME, organism-based; settings: in vivo, read-out: Vdss
[19] = Clearance in ICR mouse at 1 mg/kg, iv and measured upto 24 hrs by LC-MS/MS analysis; assay type: ADME, organism-based; settings: in vivo
[20] = Half life in ICR mouse at 3 mg/kg, po and measured upto 24 hrs by LC-MS/MS analysis; assay type: ADME, organism-based; settings: in vivo
[21] = Cmax in ICR mouse at 3 mg/kg, po and measured upto 24 hrs by LC-MS/MS analysis; assay type: ADME, organism-based; parameters: dose 3 mg/kg, time < 24 hrs, route po; settings: in vivo
[22] = AUC in ICR mouse at 3 mg/kg, po and measured upto 24 hrs by LC-MS/MS analysis; assay type: ADME, organism-based; parameters: dose 3 mg/kg, time < 24 hrs, route po; settings: in vivo
[23] = Oral bioavailability in ICR mouse at 3 mg/kg and measured upto 24 hrs by LC-MS/MS analysis; assay type: ADME, organism-based; settings: in vivo
in vivo [24] = settings: Sprague-Dawley, rat, po, 3 mg/kg
in vivo [25] = settings: Sprague-Dawley, rat, po, 3 mg/kg; remark: listed apart in the source
[26] = rat, in vivo, po, 3 mg/kg, 24 h
[27] = Plasma concentration in Sprague-Dawley rat at 3 mg/kg,po and mesured after 1 hrs by LC-MS/MS analysis; assay type: ADME, organism-based
[28] = Plasma concentration in Sprague-Dawley rat at 3 mg/kg,po and mesured after 3 hrs by LC-MS/MS analysis; assay type: ADME, organism-based
[29] = Plasma concentration in Sprague-Dawley rat at 3 mg/kg,po and mesured after 6 hrs by LC-MS/MS analysis; assay type: ADME, organism-based
[30] = Plasma concentration in Sprague-Dawley rat at 5 mg/kg,po and mesured after 1 hrs by LC-MS/MS analysis; assay type: ADME, organism-based
[31] = Plasma concentration in Sprague-Dawley rat at 5 mg/kg,po and mesured after 3 hrs by LC-MS/MS analysis; assay type: ADME, organism-based
[32] = Plasma concentration in Sprague-Dawley rat at 5 mg/kg,po and mesured after 6 hrs by LC-MS/MS analysis; assay type: ADME, organism-based
[33] = Plasma concentration in Sprague-Dawley rat at 3 mg/kg,po and mesured after 24 hrs by LC-MS/MS analysis; assay type: ADME, organism-based
[34] = Plasma protein binding in human; assay type: ADME, cell-free; settings: read-out: PPB (converted)
[35] = Plasma protein binding in dog; assay type: ADME, cell-free, Canis lupus familiaris; settings: read-out: PPB (converted)
[36] = Plasma protein binding in monkey; assay type: ADME, cell-free, Macaca mulatta; settings: rhesus monkey, read-out: PPB (converted)
[37] = Plasma protein binding in rat; assay type: ADME, cell-free; settings: read-out: PPB (converted)
[38] = Plasma protein binding in mouse; assay type: ADME, cell-free; settings: read-out: PPB (converted)

O=C1CC[C@H](N2Cc3cc(N4CCN(CC5CCN(c6ccc([C@@H]7c8ccc(O)cc8CC[C@@H]7c7ccccc7)cc6)CC5)CC4)ccc3C2=O)C(=O)N1 [VEPDEGESTRANT]
Activity [1]: 78%
Activity [2]: 83%
Activity [3]: 77%
inhibition in vivo at 10 mg/kg (MCF7 [4]): 87%
Activity (MCF7 [5]): Active
Activity (MCF7 [6]): Active
inhibition in vivo at 30 mg/kg (MCF7 [7]): 47%
Activity (MCF7 [8]): Active
Activity [9]: Non-Toxic
Activity [10]: Non-Toxic
Activity [11]: Non-Toxic

O=C1CCC(N2C(=O)c3cc4c(cc3C2=O)CN(CC(=O)N2CCC3(CC2)CCN(c2ccc([C@@H]5c6ccc(O)cc6CC[C@@H]5c5ccccc5)cc2)CC3)C4)C(=O)N1 (stereo partly drawn)
Vd at 24 h [12]: 1.6 L/kg
clearance at 24 h [13]: 20 mL/min/kg
half-life at 24 h [14]: 2.5 h
AUC at 24 h [15]: 328 ng·h/mL
DC50 [16]: 5.5 nM
Emax [17]: 90%
Vd [18]: 2.2 L/kg
clearance [19]: 31 mL/min/kg
half-life [20]: 3.1 h
Cmax [21]: 146 ng/mL
AUC at 24 h [22]: 550 ng·h/mL
bioavailability [23]: 35%
Cmax at 24 h (in vivo [24]): 69.5 ng/mL
bioavailability at 24 h (in vivo [25]): 13%

O=C1CCC(N2C(=O)c3cc4c(cc3C2=O)CN(CC2CCN(CC3CCN(c5ccc([C@@H]6c7ccc(O)cc7CC[C@@H]6c6ccccc6)cc5)CC3)CC2)C4)C(=O)N1 (stereo partly drawn)
Vd at 24 h [12]: 55.4 L/kg
half-life at 24 h [14]: 16 h
AUC ([15]; 24 h): 399 ng·h/mL
DC50 [16]: 4.3 nM
Emax [17]: 79%
F [26]: 36%
Cmax at 24 h (in vivo [24]): 24.9 ng/mL

C[C@@H]1Cc2c([nH]c3ccccc23)[C@@H](c2c(F)cc(N3CCC4(CCN(C(=O)CN5Cc6cc7c(cc6C5)C(=O)N(C5CCC(=O)NC5=O)C7=O)CC4)CC3)cc2F)N1CC(F)(F)CO (stereo partly drawn)
DC50 [16]: 0.1 nM
Emax [17]: 97%
concentration at 1 h [27]: 9.3 ng/mL
concentration at 3 h [28]: 6.6 ng/mL
concentration at 6 h [29]: 3 ng/mL

C[C@@H]1Cc2c([nH]c3ccccc23)[C@@H](c2c(F)cc(N3CCC4(CCN(C(=O)CN5Cc6cc7c(cc6C5)C(=O)N(C5CCC(=O)NC5=O)C7=O)CC4)CC3)cc2F)N1CC(F)F (stereo partly drawn)
DC50 [16]: 0.8 nM
Emax [17]: 106%
concentration at 1 h [30]: 8.3 ng/mL
concentration at 3 h [31]: 14 ng/mL
concentration at 6 h [32]: 10.3 ng/mL

C[C@@H]1Cc2c([nH]c3ccccc23)[C@@H](c2c(F)cc(N3CCC4(CCN(C(=O)CN5Cc6cc7c(cc6C5)C(=O)N(C5CCC(=O)NC5=O)C7=O)CC4)CC3)cc2F)N1CC(C)(C)F (stereo partly drawn)
DC50 [16]: 0.8 nM
Emax [17]: 83%
concentration at 1 h [27]: 7.9 ng/mL
concentration at 3 h [28]: 8.2 ng/mL
concentration at 6 h [29]: 8.3 ng/mL
concentration at 24 h [33]: 4 ng/mL

CN1Cc2cc3c(cc2C1)C(=O)N(C1CCC(=O)NC1=O)C3=O (stereo not drawn)
fraction unbound [34]: 0.875
fraction unbound [35]: 0.83
fraction unbound [36]: 0.856
fraction unbound [37]: 0.635
fraction unbound [38]: 0.737
Vd at 24 h [12]: 5 L/kg
clearance at 24 h [13]: 29.2 mL/min/kg
half-life at 24 h [14]: 1.8 h
AUC at 24 h [15]: 1150 ng·h/mL
Cmax at 24 h (in vivo [24]): 228 ng/mL
bioavailability at 24 h (in vivo [25]): 70%

O=C1CCC(N2C(=O)c3cc4c(cc3C2=O)CN(C2CCN(CC3CCN(c5ccc([C@@H]6c7ccc(O)cc7CC[C@@H]6c6ccccc6)cc5)CC3)CC2)C4)C(=O)N1 (stereo partly drawn)
Vd at 24 h [12]: 8.8 L/kg
clearance at 24 h [13]: 25.7 mL/min/kg
half-life at 24 h [14]: 4 h
AUC at 24 h [15]: 552 ng·h/mL
DC50 [16]: 2.3 nM
Emax [17]: 84%
Vd [18]: 16.2 L/kg
clearance [19]: 14.2 mL/min/kg
half-life [20]: 9.8 h
Cmax [21]: 93.3 ng/mL
AUC at 24 h [22]: 1480 ng·h/mL
bioavailability [23]: 58%
Cmax at 24 h (in vivo [24]): 54.6 ng/mL
bioavailability at 24 h (in vivo [25]): 30%
